Values quoted from earlier work in patent US8962638B2, “Piperidine inhibitors of janus kinase 3” (Auspex Pharmaceuticals, Inc., priority 2009, dated 2015).

How the values were obtained:
[1] = humans, 14C labeled CP-690550, oral

mean terminal phase half-life of unchanged CP-690550 [1]: approximately 3.2 hours
renal excretion of unchanged drug, share of clearance (in vivo): ~30%
non-renal share of clearance (via hepatic metabolism by CYP3A4/5 and CYP2C19): approximately 70%
SMILES: C[C@@H]1CCN(C(=O)CC#N)C[C@@H]1N(C)c1ncnc2[nH]ccc12 [CP-690550, 4-methyl-3-(methyl-7H-pyrrolo[2,3-d]pyrimidin-4-ylamino)-beta-oxo-(3R,4R)-1-piperidinepropanenitrile]
